From PMC11876601 (Molecular Systems Biology, 2025)
Where “and” joins values, the source holds several entries; their conditions need not be identical. Identical values can stand only once. Like-named read-outs stand apart in the source and are kept apart here.

What was measured:
MAP3K1 ; Q13233 = MAP3K1 ; Q13233 (Homo sapiens, UniProt Q13233); experiment: biochemical; parameters: species or system AsPC-1; Kinobeads competition pulldown in AsPC-1 lysate with LC-MS/MS label-free quantification; apparent Kd
Sequence of MAP3K1 ; Q13233 (Q13233 whole entry): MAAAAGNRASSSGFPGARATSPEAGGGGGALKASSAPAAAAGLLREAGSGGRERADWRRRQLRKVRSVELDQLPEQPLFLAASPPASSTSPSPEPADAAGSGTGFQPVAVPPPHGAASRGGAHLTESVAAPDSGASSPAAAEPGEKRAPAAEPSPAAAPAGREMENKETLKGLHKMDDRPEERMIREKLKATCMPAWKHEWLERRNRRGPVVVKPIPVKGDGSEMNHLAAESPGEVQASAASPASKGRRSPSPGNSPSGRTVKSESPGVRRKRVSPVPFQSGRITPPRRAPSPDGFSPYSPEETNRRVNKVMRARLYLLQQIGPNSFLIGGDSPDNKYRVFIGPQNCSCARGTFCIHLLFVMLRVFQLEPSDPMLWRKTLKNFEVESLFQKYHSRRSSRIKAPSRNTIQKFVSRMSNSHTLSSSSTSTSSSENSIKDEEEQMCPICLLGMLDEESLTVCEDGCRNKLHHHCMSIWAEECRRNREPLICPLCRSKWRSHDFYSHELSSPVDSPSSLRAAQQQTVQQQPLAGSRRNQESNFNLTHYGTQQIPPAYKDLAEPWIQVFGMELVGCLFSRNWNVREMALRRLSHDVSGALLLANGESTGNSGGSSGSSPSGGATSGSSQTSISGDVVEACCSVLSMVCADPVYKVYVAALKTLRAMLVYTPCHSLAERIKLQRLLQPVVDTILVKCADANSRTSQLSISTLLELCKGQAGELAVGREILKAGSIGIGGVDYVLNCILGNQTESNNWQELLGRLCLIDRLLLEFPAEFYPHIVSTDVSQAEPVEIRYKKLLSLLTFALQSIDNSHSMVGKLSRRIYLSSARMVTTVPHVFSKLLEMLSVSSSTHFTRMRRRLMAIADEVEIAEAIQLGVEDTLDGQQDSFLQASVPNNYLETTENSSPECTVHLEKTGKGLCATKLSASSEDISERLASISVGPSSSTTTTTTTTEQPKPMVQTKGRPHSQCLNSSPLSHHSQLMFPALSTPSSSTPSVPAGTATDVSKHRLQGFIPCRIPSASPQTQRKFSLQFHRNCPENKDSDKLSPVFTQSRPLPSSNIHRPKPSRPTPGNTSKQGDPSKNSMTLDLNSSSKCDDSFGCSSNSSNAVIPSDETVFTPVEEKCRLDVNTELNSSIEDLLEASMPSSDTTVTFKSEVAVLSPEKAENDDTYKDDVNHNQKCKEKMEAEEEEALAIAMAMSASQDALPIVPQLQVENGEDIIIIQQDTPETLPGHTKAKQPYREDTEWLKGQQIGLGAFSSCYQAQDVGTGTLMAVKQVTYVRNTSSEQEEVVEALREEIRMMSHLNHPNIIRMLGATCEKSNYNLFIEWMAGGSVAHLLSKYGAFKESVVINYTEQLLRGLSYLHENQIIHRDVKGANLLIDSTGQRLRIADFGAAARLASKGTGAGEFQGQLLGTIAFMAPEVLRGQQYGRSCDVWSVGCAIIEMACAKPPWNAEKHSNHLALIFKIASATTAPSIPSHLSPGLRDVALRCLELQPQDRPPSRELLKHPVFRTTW
Protocol: (§1) This was followed by incubation with Kinobeads ε (17.5 µl of settled beads) for 30 min at 4 °C to enrich kinases. […] Enriched proteins were reduced with 50 mM DTT in 8 M urea, 40 mM Tris-HCl, pH 7.4 for 30 min at room temperature, and alkylated with 55 mM chloroacetamide. After reducing the urea concentration to 1–2 M, proteins were digested with trypsin at 37 °C for 16 h. Subsequently, eluted peptides were desalted using SepPak tC18 µElution plates (Waters), freeze-dried by vacuum centrifugation, and stored at −20 °C. Proteins were filtered by potential contaminants, reversed hits and proteins identified only by site. Residual binding of proteins was calculated from LFQ intensities as the ratio between drug doses and vehicle. […] Only kinases quantified with at least 4 unique peptides in the vehicle experiment were considered. Potential targets were further curated through manual inspection of dose-dependent reduction in MS/MS and unique peptide counts.

GSK3A ; P49840 = GSK3A ; P49840 (Homo sapiens, UniProt P49840); experiment: biochemical; parameters: species or system AsPC-1; Kinobeads competition pulldown in AsPC-1 lysate with LC-MS/MS label-free quantification; apparent Kd
Sequence of GSK3A ; P49840 (P49840 whole entry): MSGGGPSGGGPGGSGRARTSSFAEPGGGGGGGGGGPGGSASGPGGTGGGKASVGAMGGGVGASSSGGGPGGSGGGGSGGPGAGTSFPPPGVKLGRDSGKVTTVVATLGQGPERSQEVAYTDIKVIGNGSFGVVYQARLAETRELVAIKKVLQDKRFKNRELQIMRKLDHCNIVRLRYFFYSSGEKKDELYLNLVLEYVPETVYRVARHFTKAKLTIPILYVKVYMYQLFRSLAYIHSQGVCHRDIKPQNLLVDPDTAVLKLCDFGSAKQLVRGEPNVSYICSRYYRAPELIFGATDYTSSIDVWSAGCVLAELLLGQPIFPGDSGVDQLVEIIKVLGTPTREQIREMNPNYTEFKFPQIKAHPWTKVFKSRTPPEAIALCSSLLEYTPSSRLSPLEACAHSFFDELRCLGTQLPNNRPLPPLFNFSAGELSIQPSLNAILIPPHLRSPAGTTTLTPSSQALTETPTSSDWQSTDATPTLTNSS
Protocol: as §1

CAMK2D = conditions: cited from earlier work
PKN1 = conditions: cited from earlier work
LATS1 = conditions: cited from earlier work
CLK1 = conditions: cited from earlier work
AAK1 = conditions: cited from earlier work
PRKD3 = conditions: cited from earlier work
RPS6KA4 = conditions: cited from earlier work
SYK = conditions: cited from earlier work
PKN2 = conditions: cited from earlier work
ERN1 = conditions: cited from earlier work
SIK2 = conditions: cited from earlier work
MARK3 = conditions: cited from earlier work
RET = conditions: cited from earlier work
p-sites in Capan-1 cells = experiment: Phosphoproteomics GEM + Elimusertib vs. GEM (non-decryptM); format: cell-based, human
Protocol: (§2) Cell culture medium was replaced 24 h after seeding. […] For time point 0, AsPC-1 cells were treated with a vehicle and lysed immediately. The final DMSO concentration in all experiments was 0.2%.
(§3) Oxidized methionine, N-terminal acetylation, and phosphorylation (STY) were set as variable modification, and cysteine carbamidomethylation was set as fixed modification. All other search parameters were kept as default, except for protein FDR which was set to 1. […] Potential contaminants and reversed hits were removed, and only peptides with unambiguously assigned phosphorylation sites with a localization probability of > 0.75 were retained. To acquire site-level quantification values, the corrected reporter ion intensities of peptides containing the same phosphosite(s) were summed up. Median centering of corrected TMT reporter channel intensities was performed. […] Channel 11 served as a vehicle for the chemodrug treatment and was not subjected to curve fitting. Instead, row-wise normalization was performed across all four TMT-batches using the medians of channels 10 and 11. […] Phosphoproteomic experiments in six additional cell lines (not dose-resolved) were median-centered within each TMT-batch, prior to row-wise normalization across all TMT-batches using a common channel filled with AsPC-1 lysate (Appendix Table S5). Two-sided t-test analysis and multiple hypothesis testing correction was performed in R using the same parameters and thresholds as described above.

p-sites in PSN-1 cells = experiment: as above; format: cell-based, human
Protocol: as §2, §3

[1] = system: p-sites in PaTu-8988-T cells; experiment: as above; format: cell-based, human
Protocol: as §2, §3

p-sites in PANC-1 cells = experiment: as above; format: cell-based, human
Protocol: as §2, §3

p-sites in Dan-G cells = experiment: as above; format: cell-based, human
Protocol: as §2, §3

[2] = system: p-sites in MiaPaCa-2 cells; experiment: as above; format: cell-based, human
Protocol: as §2, §3

[3] = 5 cell line mix lysate, Kinobeads ε, ref Reinecke et al. (2023), read-out: KDapp
[4] = 5 cell line mix lysate, Kinobeads ε, ref Reinecke et al. (2023)
[5] = PKN1, 5 cell line mix lysate, Kinobeads ε, ref Reinecke et al. (2023)
[6] = LATS1, 5 cell line mix lysate, Kinobeads ε, ref Reinecke et al. (2023)
[7] = CLK1, 5 cell line mix lysate, Kinobeads ε, ref Reinecke et al. (2023)
[8] = AAK1, 5 cell line mix lysate, Kinobeads ε, ref Reinecke et al. (2023)
[9] = PRKD3, 5 cell line mix lysate, Kinobeads ε, ref Reinecke et al. (2023)
[10] = RPS6KA4, 5 cell line mix lysate, Kinobeads ε, ref Reinecke et al. (2023)
[11] = PKN2, 5 cell line mix lysate, Kinobeads ε, ref Reinecke et al. (2023)
[12] = ERN1, 5 cell line mix lysate, Kinobeads ε, ref Reinecke et al. (2023)
[13] = SIK2, 5 cell line mix lysate, Kinobeads ε, ref Reinecke et al. (2023)
[14] = MARK3, 5 cell line mix lysate, Kinobeads ε, ref Reinecke et al. (2023)
[15] = 4 cell line mix lysate, Kinobeads y, ref Klaeger et al. (2017)

`CNCc1ccc(-c2cc(-c3nc(-c4ccc(S(=O)(=O)C(C)C)cc4)cnc3N)on2)cc1` [Berzosertib] showed a Kd (MAP3K1 ; Q13233) of 11.6 nM and a Kd (GSK3A ; P49840) of 39.7 nM.
In the case of `COc1cc(N2CCC(N3CCN(C)CC3)CC2)ccc1Nc1ncc(Cl)c(Nc2ccccc2P(C)(C)=O)n1` [Brigatinib], the Kd (CAMK2D; [3]) is given as 86.4 nM, the EC50 (CAMK2D; [4]) is given as 424 nM and the pKDapp (CAMK2D; [4]) is given as 7.06. For the same compound, the EC50 (PKN1; [5]) was 2270 nM, the pKDapp (PKN1; [5]) was 5.70 and the Kd (PKN1; PKN1, 5 cell line mix lysate, Kinobeads ε, ref Reinecke et al. (2023), read-out: KDapp) was 1990 nM. The EC50 (LATS1; [6]) was 3550 nM, the pKDapp (LATS1; [6]) was 5.55 and the Kd (LATS1; LATS1, 5 cell line mix lysate, Kinobeads ε, ref Reinecke et al. (2023), read-out: KDapp) was 2790 nM. For the same compound, the EC50 (CLK1; [7]) was 13.1 nM, the pKDapp (CLK1; [7]) was 8.03 and the Kd (CLK1; CLK1, 5 cell line mix lysate, Kinobeads ε, ref Reinecke et al. (2023), read-out: KDapp) was 9.35 nM. The EC50 (AAK1; [8]) was 328 nM, the pKDapp (AAK1; [8]) was 6.66 and the Kd (AAK1; AAK1, 5 cell line mix lysate, Kinobeads ε, ref Reinecke et al. (2023), read-out: KDapp) was 220 nM. The EC50 (PRKD3; [9]) was 259 nM, the pKDapp (PRKD3; [9]) was 6.72 and the Kd (PRKD3; PRKD3, 5 cell line mix lysate, Kinobeads ε, ref Reinecke et al. (2023), read-out: KDapp) was 192 nM. For the same compound, the EC50 (RPS6KA4; [10]) was 2080 nM, the pKDapp (RPS6KA4; [10]) was 5.89 and the Kd (RPS6KA4; RPS6KA4, 5 cell line mix lysate, Kinobeads ε, ref Reinecke et al. (2023), read-out: KDapp) was 1290 nM. The Kd (SYK; [3]) was 1570 nM, the EC50 (SYK; [4]) was 1870 nM and the pKDapp (SYK; [4]) was 5.81. The EC50 (PKN2; [11]) was 1040 nM, the pKDapp (PKN2; [11]) was 6.07 and the Kd (PKN2; PKN2, 5 cell line mix lysate, Kinobeads ε, ref Reinecke et al. (2023), read-out: KDapp) was 852 nM. For the same compound, the EC50 (ERN1; [12]) was 142 nM, the pKDapp (ERN1; [12]) was 6.94 and the Kd (ERN1; ERN1, 5 cell line mix lysate, Kinobeads ε, ref Reinecke et al. (2023), read-out: KDapp) was 115 nM. The EC50 (SIK2; [13]) was 46.5 nM, the pKDapp (SIK2; [13]) was 7.62 and the Kd (SIK2; SIK2, 5 cell line mix lysate, Kinobeads ε, ref Reinecke et al. (2023), read-out: KDapp) was 24.1 nM. For the same compound, the EC50 (MARK3; [14]) was 250 nM, the pKDapp (MARK3; [14]) was 6.71 and the Kd (MARK3; MARK3, 5 cell line mix lysate, Kinobeads ε, ref Reinecke et al. (2023), read-out: KDapp) was 193 nM. For the same compound, the Kd (RET; [3]) was 125 nM, the EC50 (RET; [4]) was 283 nM and the pKDapp (RET; [4]) was 6.90.
With `C[C@@H]1COCCN1c1cc(-c2ccnn2C)c2ccnc(-c3ccn[nH]3)c2n1` [Elimusertib] the “Mean log2 PTM response (GEM+Elimusertib vs. GEM)” value (p-sites in Capan-1 cells) was -1.06, the “Mean log2 PTM response (GEM+Elimusertib vs. GEM)” value (p-sites in PSN-1 cells) was -1.04 and -1.16 and the “Mean log2 PTM response (GEM+Elimusertib vs. GEM)” value [1] was -1.04. The “Mean log2 PTM response (GEM+Elimusertib vs. GEM)” value (p-sites in PANC-1 cells) was -1.13, the “Mean log2 PTM response (GEM+Elimusertib vs. GEM)” value (p-sites in Dan-G cells) was -1.06 and -1.18 and -1.05 and the “Mean log2 PTM response (GEM+Elimusertib vs. GEM)” value [2] was -1.06.
For `Nc1ccn([C@@H]2O[C@H](CO)[C@@H](O)C2(F)F)c(=O)n1` [GEM, Gemcitabine], the “Mean log2 TMT reporter ion intensity” value (p-sites in Capan-1 cells; source data 5F (p-site not named), CAPAN1) was 20.29, the “Mean log2 TMT reporter ion intensity” value (p-sites in PSN-1 cells; source data 5F (p-site not named), PSN1) was 19.41 and the “Mean log2 TMT reporter ion intensity” value ([1]; source data 5F (p-site not named), PATU8988T) was 19.97. The “Mean log2 TMT reporter ion intensity” value (p-sites in PANC-1 cells; source data 5F (p-site not named), PANC1) was 18.30, the “Mean log2 TMT reporter ion intensity” value (p-sites in Dan-G cells; source data 5F (p-site not named), DANG) was 20.35 and the “Mean log2 TMT reporter ion intensity” value ([2]; source data 5F (p-site not named), MIAPACA2) was 18.24.
In the case of `Nc1nn2cc(F)cnc2c1C(=O)Nc1cncc(F)c1N1CCC(C(=O)N2CCN(C3COC3)CC2)CC1` [Gartisertib], the Kd (MAP3K1 ; Q13233) is reported as 422 nM and the Kd (GSK3A ; P49840) is reported as 0.719 nM.
